Experimental data from patent US9862716B2, “TRKA kinase inhibitors, compositions and methods thereof” (Merck Sharp & Dohme Corp., priority 2014, dated 2018).

Each molecule was assayed against T1, human TrkA receptor (Homo sapiens, UniProt P04629) (assay: DiscoverX PathHunter TrkA functional assay (NGF-stimulated U2OS cells)). Conditions: U2OS cells expressing human TrkA-PK, Shc1-EA and p75NTR; compound 1 h, then NGF at ~80% of maximal response for 3 h; luminescence.
T1 construct: host or cells: U2OS cells (PathHunter cell line)
T1 sequence (P04629 33-796): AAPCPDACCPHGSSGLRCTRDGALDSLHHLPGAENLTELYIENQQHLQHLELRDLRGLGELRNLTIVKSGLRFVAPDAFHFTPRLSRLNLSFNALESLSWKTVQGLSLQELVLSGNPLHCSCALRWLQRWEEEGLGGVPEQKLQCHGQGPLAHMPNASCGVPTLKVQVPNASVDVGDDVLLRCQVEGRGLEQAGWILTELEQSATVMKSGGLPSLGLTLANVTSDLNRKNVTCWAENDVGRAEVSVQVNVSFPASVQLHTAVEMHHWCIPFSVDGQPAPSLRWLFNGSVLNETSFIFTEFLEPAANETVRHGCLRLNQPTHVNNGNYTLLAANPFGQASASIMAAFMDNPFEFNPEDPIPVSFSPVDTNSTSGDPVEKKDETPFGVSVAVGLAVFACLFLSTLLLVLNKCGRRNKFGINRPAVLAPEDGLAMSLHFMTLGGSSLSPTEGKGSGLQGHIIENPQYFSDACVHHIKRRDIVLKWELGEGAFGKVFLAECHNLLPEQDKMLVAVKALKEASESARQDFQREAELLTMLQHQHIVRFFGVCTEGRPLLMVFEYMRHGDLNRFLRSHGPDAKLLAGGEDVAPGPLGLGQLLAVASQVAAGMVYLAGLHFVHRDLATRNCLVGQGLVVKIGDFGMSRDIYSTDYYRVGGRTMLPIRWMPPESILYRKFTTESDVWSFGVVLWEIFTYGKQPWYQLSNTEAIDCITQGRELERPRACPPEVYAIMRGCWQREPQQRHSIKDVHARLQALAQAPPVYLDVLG
Assay type: cell-based

SMILES	IC50 [nM]
CC(=O)NCCc1ccn2c(NC(=O)c3ccc(C(F)(F)F)c(-c4ccn(C)n4)c3)c(-c3ccccc3)nc2c1 [Compound 101, N-{7-[2-(acetylamino)ethyl]-2-phenylimidazo[1,2-a]pyridin-3-yl}-3-(1-methyl-1H-pyrazol-3-yl)-4-(trifluoromethyl) benzamide]	10
Cn1ccc(-c2cc(C(=O)Nc3c(-c4ccccc4)nc4cc(CCNS(C)(=O)=O)ccn34)ccc2C(F)(F)F)n1 [Compound 102, 3-(1-methyl-1H-pyrazol-3-yl)-N-(7-{2-[(methylsulfonyl)amino]ethyl}-2-phenylimidazo[1,2-a]pyridin-3-yl)-4-(trifluoromethyl) benzamide]	4.3
COC(=O)NCCc1ccn2c(NC(=O)c3ccc(C(F)(F)F)c(-c4ccn(C)n4)c3)c(-c3ccccc3)nc2c1 [Compound 104, methyl{2-[3-({[3-(1-methyl-1H-pyrazol-3-yl)-4-(trifluoromethyl)phenyl]carbonyl}amino)-2-phenylimidazo[1,2-a]pyridin-7-yl]ethyl}carbamate]	1.7
CNCCc1ccn2c(NC(=O)c3ccc(C(F)(F)F)c(-c4ccn(C)n4)c3)c(-c3ccccc3)nc2c1 [Compound 109, N-{7-[2-(methylamino)ethyl]-2-phenylimidazo[1,2-a]pyridin-3-yl}-3-(1-methyl-1H-pyrazol-3-yl)-4-(trifluoromethyl) benzamide]	169
Cn1ccc(-c2cc(C(=O)Nc3c(-c4ccccc4)nn4cc(C#N)ccc34)c(F)cc2C(F)(F)F)n1 [Compound 111, N-(6-cyano-2-phenylpyrazolo[1,5-a]pyridin-3-yl)-2-fluoro-5-(1-methyl-1H-pyrazol-3-yl)-4-(trifluoromethyl) benzamide]	1000
C[C@@H](O)c1ccn2c(NC(=O)c3cc(-c4ccn(C)n4)c(C(F)(F)CF)cc3F)c(-c3ccccc3)nc2c1 [Compound 115, 2-fluoro-N-{7-[(1R)-1-hydroxyethyl]-2-phenylimidazo[1,2-a]pyridin-3-yl}-5-(1-methyl-1H-pyrazol-3-yl)-4-(1,1,2-trifluoroethyl)benzamide]	3.7

Continued by falling IC50, values first:

IC50 [nM]	SMILES
3.6	Cn1ccc(-c2cc(C(=O)Nc3c(-c4ccccc4)[nH]c4ccc(C(=O)O)cc34)c(F)cc2C(F)(F)F)n1 [Compound 110, 3-({[2-fluoro-5-(1-methyl-1H-pyrazol-3-yl)-4-(trifluoromethyl)phenyl]carbonyl}amino)-2-phenyl-1H-indole-5-carboxylic acid]
1.4	O=C(Nc1c(-c2ccccc2)nc2ccccn12)c1cc(-c2ncccn2)c(C(F)(F)F)cc1F [Compound 105, 2-fluoro-N-(2-phenylimidazo[1,2-a]pyridin-3-yl)-5-pyrimidin-2-yl-4-(trifluoromethyl) benzamide]
1	Cn1ccc(-c2cc(C(=O)Nc3c(-c4ccccc4)[nH]c4ccc(C#N)cc34)c(F)cc2C(F)(F)F)n1 [Compound 108, N-(5-cyano-2-phenyl-1H-indol-3-yl)-2-fluoro-5-(1-methyl-1H-pyrazol-3-yl)-4-(trifluoromethyl) benzamide]
0.94	Cn1ccc(-c2cc(C(=O)Nc3c(-c4ccccc4)nn4ccc(C(C)(C)O)cc34)c(F)cc2C(F)(F)F)n1 [Compound 103, 2-fluoro-N-[5-(1-hydroxy-1-methylethyl)-2-phenylpyrazolo[1,5-a]pyridin-3-yl]-5-(1-methyl-1H-pyrazol-3-yl)-4-(trifluoromethyl) benzamide]
